According to publication PMC4259414, “HS-133, a novel fluorescent phosphatidylinositol 3-kinase inhibitor as a potential imaging and anticancer agent for targeted therapy” (Oncotarget, 2014):
Like-named read-outs stand apart in the source and are kept apart here.

Columns and labels:
[1] = tissue distribution, tissue-to-plasma ratio; format: in vivo, BALB/c nude mice bearing SkBr3 xenograft; details: BALB/c nude, mouse, PO 10 mg/kg, 30 min post-dose
Description: Various tissue concentrations, such as the heart, lung, liver, kidney, spleen, brain, and tumor in BALB/c nude mice bearing SkBr3 xenograft are shown in Fig. 9B. The ratios of each tissue-to-plasma (KP value) were 3.26, 4.18, 0.11, 1.99, 3.07, 4.99, and 2.06 for the heart, lung, liver, kidney, spleen, brain, and tumor, respectively. […] Thus, this high concentration level of HS-133 in tumor tissues may be contributed to in vivo efficacy in the SkBr3 xenograft model.
The heart, lung, liver, kidney, brain, spleen, and tumor were collected at 30 min post-dose from 3 different animals at each time point, rinsed with ice-cold saline, weighed and stored at −80°C until analysis. For HS-133 quantification, mouse tissues were homogenized with three times the volume of PBS. The homogenates were extracted by protein precipitation with acetonitrile. LC-MS/MS analysis was conducted as described for the plasma. The homogenate concentrations were converted to tissue concentrations for the calculations of each tissue-to-plasma ratio.

[2] = system: SkBr3 cells; experiment: apoptosis: Western blotting and TUNEL assay; format: cell-based, human
Description: Since PI3K and its downstream effectors appear to mediate anti-apoptotic signals, we examined the effect of HS-133 on apoptosis. […] We also observed that the levels of Bax, pro-apoptotic protein, were increased by HS-133 treatment in a dose-dependent manner. Furthermore, induction of apoptosis by HS-133 was confirmed by visualizing the fragmented DNA with TUNEL staining (Fig. 5B).
The cells were washed three times with ice-cold PBS before lysis, and were lysed with a buffer containing 1% Triton X-100, 1% Nonidet P-40 (NP-40), as well as protease and phosphatase inhibitor cocktails (GenDEPOT, Barker, TX). Equal amounts of protein were separated by 10% sodium dodecyl sulfate-polyacrylamide gel electrophoresis (SDS-PAGE) and transferred onto the polyvinylidene fluoride (PVDF) membranes (Millipore, Bedford, MA). Immunostaining was performed by incubating the blots with primary antibodies, followed by horseradish peroxidase (HRP)-conjugated secondary antibody and detected with an enhanced chemiluminescence (ECL) plus system (Amersham Biosciences, Piscataway, NJ). […]
The SkBr3 cells were plated on 18-mm cover glasses in DMEM medium and incubated for 24 h so that approximately 70% confluence was reached. […] The stained cells were examined for a fluorescence of nuclear fragmentation. […]

[3] = pharmacokinetic study in mouse; format: in vivo; details: plasma, ICR mice; for AUC(0-t): read-out: AUC0–24hr; for half-life: read-out: T1/2, λ (converted)
[4] = system: SkBr3 xenograft; experiment: SkBr3 tumor xenograft study; format: in vivo, BALB/c nude mice
Experimental: We examined the effects of HS-133 using athymic BALB/c nude mice implanted with the SkBr3 cells. HS-133 was injected intratumorally 2 times per week with a dose of 5 mg/kg when tumors reached an average volume of 50–100 mm^3. […] The average tumor volume of HS-133 treated mice was reduced by about 50% compared to that of control mice (Fig. 8D). To assess the general toxicity, we also measured the body weight change in tumor-bearing mice.
To establish SkBr3 tumor xenograft in mice, the SkBr3 cell line was grown in a culture, detached by trypsinization, washed and resuspended in PBS. Six-week old athymic BALB/c nude mice (Central Lab. Animal Inc. Seoul, Korea) were injected with 5 × 10^6 cells in the right flank of each mouse to initiate tumor growth. After reaching a tumor volume of 50–100 mm^3, mice were randomly divided into two groups, each having six mice. Mice in the control group were fed with a 0.2 mL vehicle (DMSO:PEG400:saline = 5:50:45) by oral gavage daily and the second group with 10 mg/kg dose of HS-133 in 0.2 mL daily for 21 days. For intratumoral administration, HS-133 was injected intratumorally with 2 times per week with a dose of 5 mg/kg when tumors reached an average volume of 50–100 mm^3. The body weight and tumor size were recorded twice per week. The tumor size was calculated by 0.5 × long axis × (short axis) ^2. Animal care and experimental procedures were conducted in accordance with the Guide for Animal Experiments by the Korean Academy of Medical Sciences, and the protocols used to this study were approved by the Institutional Animal Care and Use Committee in Inha University Hospital (Approval No. 110802-105).

[5] = biological target: T1, PI3Kα (Homo sapiens, UniProt P42336); experiment: radiometric kinase assay ([γ-33P]-ATP), Reaction Biology Corp.; format: biochemical
T1 construct: purchased Reaction Biology Corp. (Malvern, PA), contract assay service
T1 sequence (P42336 whole entry): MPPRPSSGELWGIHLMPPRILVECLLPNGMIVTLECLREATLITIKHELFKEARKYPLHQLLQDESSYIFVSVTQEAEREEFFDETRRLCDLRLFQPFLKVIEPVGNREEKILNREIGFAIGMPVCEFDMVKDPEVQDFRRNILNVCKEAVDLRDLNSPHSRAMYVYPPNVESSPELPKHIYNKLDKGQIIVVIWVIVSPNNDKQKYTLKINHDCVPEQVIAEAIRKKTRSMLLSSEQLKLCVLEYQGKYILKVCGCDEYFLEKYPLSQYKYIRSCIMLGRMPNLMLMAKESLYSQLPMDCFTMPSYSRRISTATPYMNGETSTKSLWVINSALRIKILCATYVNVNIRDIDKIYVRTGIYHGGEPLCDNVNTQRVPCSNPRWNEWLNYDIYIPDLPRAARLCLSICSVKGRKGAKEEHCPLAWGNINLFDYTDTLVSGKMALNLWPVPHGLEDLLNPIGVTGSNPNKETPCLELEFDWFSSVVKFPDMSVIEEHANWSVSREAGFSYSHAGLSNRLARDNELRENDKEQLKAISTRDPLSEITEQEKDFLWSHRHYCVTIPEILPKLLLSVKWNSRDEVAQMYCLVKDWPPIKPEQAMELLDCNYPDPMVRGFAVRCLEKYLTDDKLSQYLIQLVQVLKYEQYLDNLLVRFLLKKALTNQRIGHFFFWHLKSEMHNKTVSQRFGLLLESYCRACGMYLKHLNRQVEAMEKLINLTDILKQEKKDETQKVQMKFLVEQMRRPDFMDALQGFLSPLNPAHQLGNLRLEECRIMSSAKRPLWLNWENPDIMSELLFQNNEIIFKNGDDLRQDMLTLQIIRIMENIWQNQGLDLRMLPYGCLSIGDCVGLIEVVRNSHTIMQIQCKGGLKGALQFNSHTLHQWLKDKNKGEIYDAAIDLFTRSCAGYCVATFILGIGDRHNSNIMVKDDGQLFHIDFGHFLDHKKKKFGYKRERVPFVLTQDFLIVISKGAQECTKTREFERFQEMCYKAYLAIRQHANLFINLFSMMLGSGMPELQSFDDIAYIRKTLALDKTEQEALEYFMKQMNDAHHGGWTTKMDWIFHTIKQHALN
T1 sequence (P27986 whole entry partner): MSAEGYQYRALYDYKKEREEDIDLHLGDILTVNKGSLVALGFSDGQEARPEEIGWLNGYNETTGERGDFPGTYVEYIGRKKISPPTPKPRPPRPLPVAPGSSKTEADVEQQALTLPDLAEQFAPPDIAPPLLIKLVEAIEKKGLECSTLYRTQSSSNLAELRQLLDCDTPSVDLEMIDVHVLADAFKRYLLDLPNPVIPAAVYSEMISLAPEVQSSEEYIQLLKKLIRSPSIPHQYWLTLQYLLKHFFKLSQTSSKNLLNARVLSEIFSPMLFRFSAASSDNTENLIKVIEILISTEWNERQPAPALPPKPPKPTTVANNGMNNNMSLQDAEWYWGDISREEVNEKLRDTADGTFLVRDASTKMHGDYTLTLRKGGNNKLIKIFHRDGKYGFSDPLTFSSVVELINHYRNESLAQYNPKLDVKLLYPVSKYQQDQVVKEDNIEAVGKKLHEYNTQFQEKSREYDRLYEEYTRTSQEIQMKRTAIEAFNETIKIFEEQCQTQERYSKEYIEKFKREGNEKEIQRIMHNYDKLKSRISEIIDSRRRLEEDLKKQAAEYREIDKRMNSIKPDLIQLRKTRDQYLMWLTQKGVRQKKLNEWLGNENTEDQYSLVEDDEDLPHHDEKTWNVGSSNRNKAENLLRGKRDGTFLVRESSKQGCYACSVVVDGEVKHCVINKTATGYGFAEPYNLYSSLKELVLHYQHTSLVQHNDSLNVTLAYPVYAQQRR

Which Kp at 0.5 h ([1]; brain, read-out: tissue-to-plasma ratio (KP value), brain) does the source give for CC(=O)Nc1ccc(-c2nc3c(c(=O)n(C)c(=O)n3C)n2-c2cccc(F)c2)cc1 [HS-133, N-(4-(7-(3-Fluorophenyl)-1,3-dimethyl-2,6-dioxo-2,3,6,7-tetrahydro-1H-purin-8-yl)phenyl) acetamide] here?
Its Kp at 0.5 h is 4.99.

What about the Kp at 0.5 h ([1]; heart, read-out: tissue-to-plasma ratio (KP value), heart) of the same compound?
Its Kp at 0.5 h is 3.26.

And the Kp at 0.5 h ([1]; kidney, read-out: tissue-to-plasma ratio (KP value), kidney)?
Its Kp at 0.5 h is 1.99.

What about the Kp at 0.5 h ([1]; liver, read-out: tissue-to-plasma ratio (KP value), liver) of the same compound?
Its Kp at 0.5 h is 0.11.

And the Kp at 0.5 h ([1]; lung, read-out: tissue-to-plasma ratio (KP value), lung)?
The Kp at 0.5 h was 4.18.

And the Kp at 0.5 h ([1]; spleen, read-out: tissue-to-plasma ratio (KP value), spleen)?
Its Kp at 0.5 h is 3.07.

What about the Kp at 0.5 h ([1]; tumor, read-out: tissue-to-plasma ratio (KP value), tumor) of the same compound?
Its Kp at 0.5 h is 2.06.

What about the “induction of apoptosis (cleavage of PARP and caspases, Bax, TUNEL)” value [2] of the same compound?
Its value is “could induce apoptosis”.

And the Tmax ([3]; ICR, po, 5 mg/kg, p.o. 5 mg/kg)?
Its Tmax is ~4.8 h.

What about the AUC(0-inf) ([3]; iv, i.v. 5 mg/kg) of the same compound?
Its AUC(0-inf) is 3.41 µg·h/mL.

And the MRT ([3]; iv, i.v. 5 mg/kg)?
Its MRT is 8.2 ± 0.8 h.

And the clearance ([3]; iv, i.v. 5 mg/kg)?
The clearance was 1.48 L/h/kg.

What about the AUC(0-t) ([3]; iv, i.v. 5 mg/kg) of the same compound?
Its AUC(0-t) is 3.19 µg·h/mL.

And the half-life ([3]; iv, i.v. 5 mg/kg)?
The half-life was 6.4 ± 0.92 h.

And the Vd ([3]; iv, i.v. 5 mg/kg, read-out: Vss)?
Its Vd is 12 L/kg.

What about the bioavailability ([3]; oral, p.o. vs i.v. 5 mg/kg, read-out: F (bioavailability)) of the same compound?
The bioavailability was 95.6%.

And the AUC(0-inf) ([3]; po, p.o. 5 mg/kg)?
The AUC(0-inf) was 3.26 µg·h/mL.

What about the Cmax ([3]; po, p.o. 5 mg/kg) of the same compound?
The Cmax was 0.236 ± 0.034 µg/mL.

What about the MRT ([3]; po, p.o. 5 mg/kg) of the same compound?
The MRT was 9.5 ± 1.9 h.

And the AUC(0-t) ([3]; po, p.o. 5 mg/kg)?
The AUC(0-t) was 3 µg·h/mL.

And the half-life ([3]; po, p.o. 5 mg/kg)?
Its half-life is 6.1 ± 1.4 h.

What about the “tumor volume and weight” value ([4]; intratumoral 5 mg/kg, 2 times per week, 19 days) of the same compound?
Its value is “remarkably reduced”.

And the “reduction of average tumor volume compared to control mice” value ([4]; oral 10 mg/kg daily for 21 days)?
Its value is “about 50%”.

And the “body weight change in tumor-bearing mice” value ([4]; same dose, SkBr3 xenograft mice)?
Its value is “no significant change”.

What about the EC50 ([5]; Fig. 2A, read-out: EC50 (printed in Fig. 2A), inhibitory activity against PI3Kα in vitro) of the same compound?
Its EC50 is 0.992 µM.

And the IC50 ([5]; radiometric kinase assay, read-out: IC50 against PI3Kα)?
Its IC50 is 0.992 µM.
